According to PubChem BioAssay (NCI):
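In this assay, cells in 96-well plates receive the compound at five concentrations for 48 hours. Endpoints are linearly interpolated between the surrounding concentrations. GI50 marks 50% less growth. TGI is the concentration that stops growth completely.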

Experiments:
Experiment in all cases: growth of human tumour cells (NCI), 48 h; in the data active = GI50 below about 0.43 µM; inactive = the rest
786-0 renal = tested on: 786-0 renal
COLO 205 colon = tested on: COLO 205 colon
DU-145 prostate = tested on: DU-145 prostate
HCT-116 colon = tested on: HCT-116 colon
NCI/ADR-RES ovarian = tested on: NCI/ADR-RES ovarian
HOP-62 NSCLC = tested on: HOP-62 NSCLC
T-47D breast = tested on: T-47D breast
SNB-75 CNS = tested on: SNB-75 CNS
HL-60(TB) leukemia = tested on: HL-60(TB) leukemia
UO-31 renal = tested on: UO-31 renal
OVCAR-4 ovarian = tested on: OVCAR-4 ovarian
SK-MEL-5 melanoma = tested on: SK-MEL-5 melanoma
HS 578T breast = tested on: HS 578T breast
OVCAR-3 ovarian = tested on: OVCAR-3 ovarian
HCC-2998 colon = tested on: HCC-2998 colon
EKVX NSCLC = tested on: EKVX NSCLC
MDA-MB-231 breast = tested on: MDA-MB-231 breast
CAKI-1 renal = tested on: CAKI-1 renal
NCI-H460 lung = tested on: NCI-H460 lung
CCRF-CEM leukemia = tested on: CCRF-CEM leukemia
HOP-92 NSCLC = tested on: HOP-92 NSCLC
HT29 colon = tested on: HT29 colon
SF-539 CNS = tested on: SF-539 CNS
NCI-H522 lung = tested on: NCI-H522 lung
OVCAR-5 ovarian = tested on: OVCAR-5 ovarian
MCF7 breast = tested on: MCF7 breast
KM12 colon = tested on: KM12 colon
A498 renal = tested on: A498 renal
SF-268 CNS = tested on: SF-268 CNS
RPMI-8226 leukemia = tested on: RPMI-8226 leukemia
NCI-H226 lung = tested on: NCI-H226 lung
SN12C renal = tested on: SN12C renal
M14 melanoma = tested on: M14 melanoma
SK-MEL-28 melanoma = tested on: SK-MEL-28 melanoma
SK-OV-3 ovarian = tested on: SK-OV-3 ovarian
U251 CNS = tested on: U251 CNS
SK-MEL-2 melanoma = tested on: SK-MEL-2 melanoma
UACC-62 melanoma = tested on: UACC-62 melanoma
MDA-MB-435 = tested on: MDA-MB-435
IGROV1 ovarian = tested on: IGROV1 ovarian
ACHN renal = tested on: ACHN renal
K-562 leukemia = tested on: K-562 leukemia
TK-10 renal = tested on: TK-10 renal
HCT-15 colon = tested on: HCT-15 colon
NCI-H23 lung = tested on: NCI-H23 lung
SW-620 colon = tested on: SW-620 colon
MOLT-4 leukemia = tested on: MOLT-4 leukemia
MALME-3M melanoma = tested on: MALME-3M melanoma
SF-295 CNS = tested on: SF-295 CNS
SR leukemia = tested on: SR leukemia
SNB-19 CNS = tested on: SNB-19 CNS
LOX IMVI melanoma = tested on: LOX IMVI melanoma

C=CCN(CC=C)C(=O)c1cc(C)nc2c1c(=O)n(-c1ccccc1)c(=O)n2CC(O)CN1CCN(c2ncccn2)CC1 (centres undefined)
inactive: GI50 (786-0 renal) > 100 µM | GI50 (COLO 205 colon) > 100 µM | GI50 (DU-145 prostate) > 100 µM | GI50 (HCT-116 colon) > 100 µM | GI50 (NCI/ADR-RES ovarian) > 100 µM | GI50 (HOP-62 NSCLC) 21.1 µM | GI50 (T-47D breast) > 100 µM | GI50 (SNB-75 CNS) 29 µM | GI50 (HL-60(TB) leukemia) > 100 µM | GI50 (UO-31 renal) > 100 µM | GI50 (OVCAR-4 ovarian) 80.3 µM | GI50 (SK-MEL-5 melanoma) > 100 µM | GI50 (HS 578T breast) > 100 µM | GI50 (OVCAR-3 ovarian) > 100 µM | GI50 (HCC-2998 colon) > 100 µM | GI50 (EKVX NSCLC) > 100 µM | GI50 (MDA-MB-231 breast) > 100 µM | GI50 (CAKI-1 renal) > 100 µM | GI50 (NCI-H460 lung) 26.7 µM | GI50 (CCRF-CEM leukemia) > 100 µM | GI50 (HOP-92 NSCLC) > 100 µM | GI50 (HT29 colon) > 100 µM | GI50 (SF-539 CNS) > 100 µM | GI50 (NCI-H522 lung) > 100 µM | GI50 (OVCAR-5 ovarian) > 100 µM | GI50 (MCF7 breast) 33.3 µM | GI50 (KM12 colon) > 100 µM | GI50 (A498 renal) > 100 µM | GI50 (SF-268 CNS) 17.2 µM | GI50 (RPMI-8226 leukemia) > 100 µM | GI50 (NCI-H226 lung) > 100 µM | GI50 (SN12C renal) > 100 µM | GI50 (M14 melanoma) > 100 µM | GI50 (SK-MEL-28 melanoma) 60.9 µM | GI50 (SK-OV-3 ovarian) > 100 µM | GI50 (U251 CNS) > 100 µM | GI50 (SK-MEL-2 melanoma) > 100 µM | GI50 (UACC-62 melanoma) > 100 µM | GI50 (MDA-MB-435) > 100 µM | GI50 (IGROV1 ovarian) > 100 µM | GI50 (ACHN renal) > 100 µM | GI50 (K-562 leukemia) > 100 µM | GI50 (TK-10 renal) > 100 µM | GI50 (HCT-15 colon) > 100 µM | GI50 (NCI-H23 lung) > 100 µM | GI50 (SW-620 colon) > 100 µM | GI50 (MOLT-4 leukemia) > 100 µM | GI50 (MALME-3M melanoma) > 100 µM | GI50 (SF-295 CNS) > 100 µM | GI50 (SR leukemia) > 100 µM | GI50 (SNB-19 CNS) > 100 µM | GI50 (LOX IMVI melanoma) > 100 µM
> 100 µM: TGI (786-0 renal) | TGI (COLO 205 colon) | TGI (DU-145 prostate) | TGI (HCT-116 colon) | TGI (NCI/ADR-RES ovarian) | TGI (HOP-62 NSCLC) | TGI (T-47D breast) | TGI (SNB-75 CNS) | TGI (HL-60(TB) leukemia) | TGI (UO-31 renal) | TGI (OVCAR-4 ovarian) | TGI (SK-MEL-5 melanoma) | TGI (HS 578T breast) | TGI (OVCAR-3 ovarian) | TGI (HCC-2998 colon) | TGI (EKVX NSCLC) | TGI (MDA-MB-231 breast) | TGI (CAKI-1 renal) | TGI (NCI-H460 lung) | TGI (CCRF-CEM leukemia) | TGI (HOP-92 NSCLC) | TGI (HT29 colon) | TGI (SF-539 CNS) | TGI (NCI-H522 lung) | TGI (OVCAR-5 ovarian) | TGI (MCF7 breast) | TGI (KM12 colon) | TGI (A498 renal) | TGI (SF-268 CNS) | TGI (RPMI-8226 leukemia) | TGI (NCI-H226 lung) | TGI (SN12C renal) | TGI (M14 melanoma) | TGI (SK-MEL-28 melanoma) | TGI (SK-OV-3 ovarian) | TGI (U251 CNS) | TGI (SK-MEL-2 melanoma) | TGI (UACC-62 melanoma) | TGI (MDA-MB-435) | TGI (IGROV1 ovarian) | TGI (ACHN renal) | TGI (K-562 leukemia) | TGI (TK-10 renal) | TGI (HCT-15 colon) | TGI (NCI-H23 lung) | TGI (SW-620 colon) | TGI (MOLT-4 leukemia) | TGI (MALME-3M melanoma) | TGI (SF-295 CNS) | TGI (SR leukemia) | TGI (SNB-19 CNS) | TGI (LOX IMVI melanoma)
